According to the supplement of paper PMC6045584:
± gives the standard deviation of the averaged measurements.

What was measured:
[1] = compound: CN1CCN(c2nc(C3=C(c4c[nH]c5ccccc45)C(=O)NC3=O)c3ccccc3n2)CC1 [SOTRASTAURIN/AEB071]; experiment: surviving fraction relative to DMSO-only wells; higher = less growth inhibition; details: exposure time: 5 days
Summary of the method: (§1)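 Tumour cell lines were grown to log phase and seeded at 250–500 cells per well in 384-well plates. They were exposed continuously to inhibitors at 0.5, 1, 5, 10, 50, 100, 500 and 1000 nM for five days, beginning 24 hours after seeding. Surviving fraction is CellTiter-Glo luminescence normalised to the median of DMSO-only wells.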

[2] = compound: C[C@]12CC[C@H](O)CC1=CC[C@@H]1[C@@H]2CC[C@]2(C)C(c3cccnc3)=CC[C@@H]12 [ABIRATERONE]; experiment: as above; details: exposure time: 5 days
Summary of the method: as §1

Test System | surviving fraction ([1]; 0.5 nM) | surviving fraction ([1]; 1 nM) | surviving fraction ([1]; 5 nM) | surviving fraction ([1]; 10 nM) | surviving fraction ([1]; 50 nM) | surviving fraction ([1]; 100 nM) | surviving fraction ([1]; 500 nM) | surviving fraction ([1]; 1000 nM) | surviving fraction ([2]; 0.5 nM) | surviving fraction ([2]; 1 nM) | surviving fraction ([2]; 5 nM) | surviving fraction ([2]; 10 nM) | surviving fraction ([2]; 50 nM) | surviving fraction ([2]; 100 nM) | surviving fraction ([2]; 500 nM) | surviving fraction ([2]; 1000 nM)
MDAMB361 BREAST | 0.708 ± 0.053 | 0.758 ± 0.065 | 0.76 ± 0.12 | 0.776 ± 0.026 | 0.577 ± 0.099 | 0.561 ± 0.073 | 0.626 ± 0.099 | 0.591 ± 0.066 | 0.881 ± 0.035 | 0.872 ± 0.096 | 0.82 ± 0.045 | 0.825 ± 0.076 | 1.53 ± 0.14 | 0.91 ± 0.04 | 0.837 ± 0.072 | 0.719 ± 0.07
ASKA SYNOVIAL | 1.14 ± 0.086 | 1.1 ± 0.074 | 1.18 ± 0.057 | 1.2 ± 0.097 | 1.03 ± 0.073 | 1.02 ± 0.028 | 0.998 ± 0.068 | 0.995 ± 0.077 | 1.19 ± 0.076 | 1.19 ± 0.11 | 1.23 ± 0.076 | 1.11 ± 0.11 | 1.2 ± 0.059 | 1.28 ± 0.069 | 1.19 ± 0.099 | 1.04 ± 0.1
SG28 HEADNECK | 1.116 ± 0.011 | 1.107 ± 0.0035 | 0.956 ± 0.12 | 1.024 ± 0.0085 | 0.821 ± 0.039 | 0.79 ± 0.14 | 0.8065 ± 0.0078 | 0.843 ± 0.088 | 1.11 ± 0.046 | 1.08 ± 0.11 | 1.02 ± 0.048 | 1.04 ± 0.12 | 1.02 ± 0.18 | 1.07 ± 0.043 | 1.01 ± 0.066 | 1.04 ± 0.13
SCC003 HEADNECK | 1.06 ± 0.027 | 1.01 ± 0.12 | 1.1 ± 0.026 | 1.04 ± 0.061 | 1.08 ± 0.13 | 0.949 ± 0.081 | 0.998 ± 0.14 | 1.04 ± 0.099 | 1.15 ± 0.044 | 1.11 ± 0.14 | 1.09 ± 0.08 | 1.14 ± 0.065 | 1.27 ± 0.084 | 1.13 ± 0.088 | 1.19 ± 0.042 | 1.1 ± 0.034
SIHA CERVIX | 0.988 ± 0.039 | 1 ± 0.12 | 1.12 ± 0.041 | 1.06 ± 0.1 | 0.935 ± 0.055 | 0.989 ± 0.0056 | 0.944 ± 0.048 | 0.849 ± 0.05 | 1.16 ± 0.013 | 1.15 ± 0.016 | 1.18 ± 0.11 | 1.12 ± 0.086 | 1.18 ± 0.064 | 1.22 ± 0.046 | 1.27 ± 0.06 | 1.16 ± 0.056
SYO1 SYNOVIAL | 1.02 ± 0.053 | 1.01 ± 0.058 | 1.04 ± 0.063 | 0.991 ± 0.068 | 0.869 ± 0.031 | 0.875 ± 0.021 | 0.891 ± 0.038 | 0.909 ± 0.038 | 1.01 ± 0.048 | 1.03 ± 0.02 | 1.03 ± 0.014 | 1.01 ± 0.013 | 1.031 ± 0.0036 | 1.03 ± 0.029 | 1.01 ± 0.018 | 1.01 ± 0.062
RDES SOFT TISSUE | 1.16 ± 0.061 | 1.22 ± 0.13 | 1.04 ± 0.13 | 1.05 ± 0.12 | 0.953 ± 0.017 | 0.871 ± 0.056 | 0.987 ± 0.075 | 1.01 ± 0.13 | 1.19 ± 0.14 | 1.18 ± 0.12 | 1.21 ± 0.15 | 1.13 ± 0.11 | 1.2 ± 0.25 | 1.22 ± 0.25 | 1.28 ± 0.23 | 1.36 ± 0.27
SG43 HEADNECK | 1.21 ± 0.12 | 0.963 ± 0.1 | 0.92 ± 0.087 | 0.761 ± 0.09 | 0.961 ± 0.15 | 1.14 ± 0.21 | 1.31 ± 0.11 | 1.15 ± 0.088 | 1.23 ± 0.2 | 1.1 ± 0.39 | 0.922 ± 0.036 | 0.934 ± 0.21 | 1.02 ± 0.51 | 0.995 ± 0.12 | 0.967 ± 0.13 | 0.987 ± 0.2
MCF7 BREAST | 0.925 ± 0.066 | 0.917 ± 0.043 | 0.945 ± 0.052 | 0.935 ± 0.036 | 0.941 ± 0.036 | 0.941 ± 0.068 | 0.941 ± 0.053 | 0.966 ± 0.017 | 0.961 ± 0.071 | 0.917 ± 0.059 | 0.902 ± 0.098 | 0.945 ± 0.027 | 1.01 ± 0.024 | 0.874 ± 0.039 | 1.05 ± 0.066 | 0.921 ± 0.017
HELA CERVIX | 1.03 ± 0.029 | 1.05 ± 0.052 | 1.05 ± 0.072 | 0.974 ± 0.043 | 1.14 ± 0.15 | 1.15 ± 0.063 | 1.11 ± 0.057 | 1.12 ± 0.092 | 1.08 ± 0.068 | 1.07 ± 0.037 | 1.1 ± 0.032 | 1.03 ± 0.023 | 1.2 ± 0.048 | 1.2 ± 0.062 | 1.23 ± 0.074 | 1.15 ± 0.055
VP229 BREAST | 1.07 ± 0.054 | 1.23 ± 0.1 | 0.995 ± 0.023 | 1.04 ± 0.13 | 0.952 ± 0.084 | 0.812 ± 0.059 | 0.956 ± 0.13 | 0.856 ± 0.19 | 1.03 ± 0.052 | 0.99 ± 0.032 | 0.997 ± 0.1 | 1.09 ± 0.1 | 1.03 ± 0.013 | 1.04 ± 0.03 | 1.26 ± 0.16 | 1.11 ± 0.16
143B BONE | 1.067 ± 0.0071 | 1.08 ± 0.037 | 1.14 ± 0.14 | 1.04 ± 0.014 | 1.09 ± 0.037 | 1.14 ± 0.11 | 1.12 ± 0.096 | 1.09 ± 0.063 | 1.04 ± 0.013 | 1.046 ± 0.005 | 1.05 ± 0.023 | 1.03 | 1.06 ± 0.035 | 1.07 ± 0.035 | 1.02 ± 0.012 | 1.01 ± 0.029
22RV1 PROSTATE | 1.08 ± 0.014 | 1.11 ± 0.026 | 0.985 ± 0.013 | 1.05 ± 0.054 | 1.24 ± 0.26 | 1.2 ± 0.17 | 1.06 ± 0.099 | 1.03 ± 0.051 | 1.06 ± 0.047 | 1.09 ± 0.086 | 1.07 ± 0.062 | 1.09 ± 0.047 | 1.11 ± 0.029 | 1.09 ± 0.051 | 1.17 ± 0.067 | 1.08 ± 0.054
SAOS2 BONE | 1.11 ± 0.024 | 1.06 ± 0.082 | 1.14 ± 0.054 | 1.12 ± 0.023 | 0.9 ± 0.069 | 0.836 ± 0.066 | 0.831 ± 0.079 | 0.839 ± 0.14 | 1.1 ± 0.015 | 1.16 ± 0.11 | 1.23 ± 0.041 | 1.16 ± 0.018 | 1.183 ± 0.0029 | 1.24 ± 0.04 | 1.204 ± 0.012 | 1.1 ± 0.017
CAL51 BREAST | 0.993 ± 0.025 | 0.969 ± 0.071 | 0.933 ± 0.031 | 0.962 ± 0.05 | 0.968 ± 0.077 | 1.04 ± 0.04 | 0.938 ± 0.077 | 0.824 ± 0.05 | 0.988 ± 0.068 | 0.984 ± 0.019 | 1.03 ± 0.043 | 0.964 ± 0.039 | 1.02 ± 0.048 | 1.04 ± 0.044 | 1.02 ± 0.048 | 1.02 ± 0.028
C33A CERVIX | 0.938 ± 0.17 | 1.05 ± 0.059 | 1.14 ± 0.045 | 1.05 ± 0.12 | 1.19 ± 0.071 | 1.16 ± 0.13 | 1.14 ± 0.077 | 1.2 ± 0.086 | 1.19 ± 0.19 | 1.13 ± 0.059 | 1.19 ± 0.063 | 1.03 ± 0.022 | 1.12 ± 0.08 | 1.17 ± 0.068 | 1.2 ± 0.027 | 1.06 ± 0.13
HSSYII SYNOVIAL | 0.909 ± 0.02 | 0.985 ± 0.084 | 0.984 ± 0.022 | 0.98 ± 0.02 | 0.87 ± 0.069 | 0.83 ± 0.065 | 0.833 ± 0.015 | 0.839 ± 0.039 | 0.989 ± 0.03 | 0.972 ± 0.034 | 0.937 ± 0.013 | 0.974 ± 0.027 | 0.983 ± 0.068 | 0.966 ± 0.023 | 0.962 ± 0.048 | 0.957 ± 0.042
HUO3N1 BONE | 1 ± 0.051 | 1.04 ± 0.075 | 1.08 ± 0.025 | 1.08 ± 0.054 | 1.001 ± 0.01 | 1.02 ± 0.025 | 0.897 ± 0.024 | 0.883 ± 0.017 | 1.03 ± 0.019 | 1.0307 ± 0.00058 | 1.07 ± 0.049 | 1.11 ± 0.025 | 1.07 ± 0.035 | 1.11 ± 0.029 | 1.02 ± 0.012 | 0.995 ± 0.046
ZR751 BREAST | 1.19 ± 0.11 | 1.3 ± 0.22 | 1.1 ± 0.15 | 1.16 ± 0.15 | 1.07 ± 0.092 | 1.1 ± 0.039 | 0.983 ± 0.15 | 1 ± 0.12 | 1.1 ± 0.11 | 1.18 ± 0.16 | 1.15 ± 0.1 | 1.19 ± 0.099 | 1.09 ± 0.19 | 1.08 ± 0.17 | 0.854 ± 0.13 | 0.731 ± 0.21
BT549 BREAST | 0.889 ± 0.093 | 1.06 ± 0.068 | 1.01 ± 0.19 | 1.16 ± 0.2 | 0.904 ± 0.095 | 0.897 ± 0.035 | 0.919 ± 0.12 | 1.07 ± 0.16 | 0.768 ± 0.079 | 1.07 ± 0.083 | 0.991 ± 0.012 | 1.02 ± 0.059 | 0.92 ± 0.067 | 1.15 ± 0.13 | 1.07 ± 0.038 | 1.2 ± 0.17
JIMT1 BREAST | 0.958 ± 0.039 | 0.941 ± 0.017 | 0.98 ± 0.033 | 0.96 ± 0.02 | 0.975 ± 0.038 | 0.956 ± 0.047 | 0.987 ± 0.037 | 0.992 ± 0.022 | 0.9997 ± 0.0033 | 0.965 ± 0.027 | 0.981 ± 0.02 | 0.962 ± 0.013 | 1.08 ± 0.047 | 1.08 ± 0.032 | 1.02 ± 0.042 | 0.929 ± 0.012
